In the supplement of paper PMC10307832:

Tests used:
Test in all cases: relative viability (nuclei count vs DMSO), 5 days (fraction); higher = more cells survive
A-427 = system: A-427
How it was run: (§1)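 One day after seeding in 1536-well plates, lung cancer cell lines were dosed by pin tool. Dosing was either single-drug or a fixed anchor-drug dose plus five library-drug doses (not always all listed) in √10 steps. After 5 days, nuclei were stained in one fix-and-stain step and counted on 4× images, and relative viability is the nuclei count of treated wells over that of vehicle wells, given as the median of duplicate plates.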

ABC-1 = system: ABC-1
How it was run: as §1

COR-L23 = system: COR-L23
How it was run: as §1

EMC-BAC-2 = system: EMC-BAC-2
How it was run: as §1

HARA = system: HARA
How it was run: as §1

HOP-62 = system: HOP-62
How it was run: as §1

LK-2 = system: LK-2
How it was run: as §1

LU99A = system: LU99A
How it was run: as §1

LXF-289 = system: LXF-289
How it was run: as §1

NCI-H1792 = system: NCI-H1792
How it was run: as §1

NCI-H1793 = system: NCI-H1793
How it was run: as §1

NCI-H1944 = system: NCI-H1944
How it was run: as §1

NCI-H1993 = system: NCI-H1993
How it was run: as §1

NCI-H2009 = system: NCI-H2009
How it was run: as §1

NCI-H2170 = system: NCI-H2170
How it was run: as §1

NCI-H2228 = system: NCI-H2228
How it was run: as §1

NCI-H3122 = system: NCI-H3122
How it was run: as §1

NCI-H596 = system: NCI-H596
How it was run: as §1

NCI-H727 = system: NCI-H727
How it was run: as §1

PC-3 [JPC-3] = system: PC-3 [JPC-3]
How it was run: as §1

SK-LU-1 = system: SK-LU-1
How it was run: as §1

SK-MES-1 = system: SK-MES-1
How it was run: as §1

SW 1573 = system: SW 1573
How it was run: as §1

SW 900 = system: SW 900
How it was run: as §1

In the case of CC(C)Oc1cc(Nc2nc(N[C@@H](C)c3ccc(F)cn3)ncc2Cl)n[nH]1 [AZ23] + N=C(N)NC(=N)NCCc1ccccc1 [Phenformin] (partner 250 µM), the relative viability (A-427; first compound 0.01 µM) is reported as 0.301, the relative viability (A-427; first compound 0.03162 µM) is reported as 0.365 and the relative viability (A-427; first compound 0.3162 µM) is reported as 0.281. For the same compound, the relative viability (ABC-1; first compound 0.01 µM) was 0.211, the relative viability (ABC-1; first compound 0.03162 µM) was 0.221 and the relative viability (ABC-1; first compound 0.3162 µM) was 0.236. For the same compound, the relative viability (COR-L23; first compound 0.01 µM) was 0.367, the relative viability (COR-L23; first compound 0.03162 µM) was 0.512 and the relative viability (COR-L23; first compound 0.3162 µM) was 0.462. For the same compound, the relative viability (EMC-BAC-2; first compound 0.01 µM) was 0.545, the relative viability (EMC-BAC-2; first compound 0.03162 µM) was 0.603 and the relative viability (EMC-BAC-2; first compound 0.3162 µM) was 0.526. For the same compound, the relative viability (HARA; first compound 0.03162 µM) was 0.589, the relative viability (HARA; first compound 0.3162 µM) was 0.471 and the relative viability (HOP-62; first compound 0.01 µM) was 0.684. For the same compound, the relative viability (HOP-62; first compound 0.03162 µM) was 0.792, the relative viability (HOP-62; first compound 0.3162 µM) was 0.79 and the relative viability (LK-2; first compound 0.01 µM) was 0.303. For the same compound, the relative viability (LK-2; first compound 0.03162 µM) was 0.401, the relative viability (LK-2; first compound 0.3162 µM) was 0.311 and the relative viability (LU99A; first compound 0.01 µM) was 0.912. The relative viability (LU99A; first compound 0.03162 µM) was 0.976, the relative viability (LU99A; first compound 0.3162 µM) was 0.882 and the relative viability (LXF-289; first compound 0.01 µM) was 0.591. The relative viability (LXF-289; first compound 0.03162 µM) was 0.512, the relative viability (LXF-289; first compound 0.3162 µM) was 0.533 and the relative viability (NCI-H1792; first compound 0.03162 µM) was 0.397. The relative viability (NCI-H1792; first compound 0.3162 µM) was 0.239, the relative viability (NCI-H1793; first compound 0.01 µM) was 0.366 and the relative viability (NCI-H1793; first compound 0.03162 µM) was 0.439. The relative viability (NCI-H1793; first compound 0.3162 µM) was 0.45, the relative viability (NCI-H1944; first compound 0.01 µM) was 0.197 and the relative viability (NCI-H1944; first compound 0.03162 µM) was 0.225. For the same compound, the relative viability (NCI-H1944; first compound 0.3162 µM) was 0.219, the relative viability (NCI-H1993; first compound 0.01 µM) was 0.501 and the relative viability (NCI-H1993; first compound 0.03162 µM) was 0.475. For the same compound, the relative viability (NCI-H1993; first compound 0.3162 µM) was 0.441, the relative viability (NCI-H2009; first compound 0.01 µM) was 0.508 and the relative viability (NCI-H2009; first compound 0.03162 µM) was 0.539. The relative viability (NCI-H2009; first compound 0.3162 µM) was 0.63, the relative viability (NCI-H2170; first compound 0.01 µM) was 0.463 and the relative viability (NCI-H2170; first compound 0.03162 µM) was 0.424. For the same compound, the relative viability (NCI-H2170; first compound 0.3162 µM) was 0.489, the relative viability (NCI-H2228; first compound 0.01 µM) was 0.401 and the relative viability (NCI-H2228; first compound 0.03162 µM) was 0.302. The relative viability (NCI-H2228; first compound 0.3162 µM) was 0.252, the relative viability (NCI-H3122; first compound 0.01 µM) was 0.387 and the relative viability (NCI-H3122; first compound 0.03162 µM) was 0.439. The relative viability (NCI-H3122; first compound 0.3162 µM) was 0.373, the relative viability (NCI-H596; first compound 0.01 µM) was 0.787 and the relative viability (NCI-H596; first compound 0.03162 µM) was 0.87. It also gave a relative viability (NCI-H596; first compound 0.3162 µM) of 0.739, a relative viability (NCI-H727; first compound 0.01 µM) of 0.571 and a relative viability (NCI-H727; first compound 0.03162 µM) of 0.552. It also gave a relative viability (NCI-H727; first compound 0.3162 µM) of 0.485, a relative viability (PC-3 [JPC-3]; first compound 0.01 µM) of 0.502 and a relative viability (PC-3 [JPC-3]; first compound 0.03162 µM) of 0.453. For the same compound, the relative viability (PC-3 [JPC-3]; first compound 0.3162 µM) was 0.476, the relative viability (SK-LU-1; first compound 0.03162 µM) was 0.586 and the relative viability (SK-LU-1; first compound 0.3162 µM) was 0.517. For the same compound, the relative viability (SK-MES-1; first compound 0.03162 µM) was 0.743, the relative viability (SK-MES-1; first compound 0.3162 µM) was 0.743 and the relative viability (SW 1573; first compound 0.01 µM) was 0.347. It also gave a relative viability (SW 1573; first compound 0.03162 µM) of 0.512, a relative viability (SW 1573; first compound 0.3162 µM) of 0.465 and a relative viability (SW 900; first compound 0.01 µM) of 0.734. It also gave a relative viability (SW 900; first compound 0.03162 µM) of 0.879 and a relative viability (SW 900; first compound 0.3162 µM) of 0.799.
CC(C)Oc1cc(Nc2nc(N[C@@H](C)c3ccc(F)cn3)ncc2Cl)n[nH]1 [AZ23] + O=C(c1cc(Cc2n[nH]c(=O)c3ccccc23)ccc1F)N1CCN(C(=O)C2CC2)CC1 [Olaparib] (partner 8 µM) was tested, and the relative viability (A-427; first compound 0.01 µM) was 0.82, the relative viability (A-427; first compound 0.03162 µM) was 0.885 and the relative viability (A-427; first compound 0.3162 µM) was 0.856. It also gave a relative viability (ABC-1; first compound 0.01 µM) of 0.971, a relative viability (ABC-1; first compound 0.03162 µM) of 0.781 and a relative viability (ABC-1; first compound 0.3162 µM) of 0.673. It also gave a relative viability (COR-L23; first compound 0.01 µM) of 0.272, a relative viability (COR-L23; first compound 0.03162 µM) of 0.365 and a relative viability (COR-L23; first compound 0.3162 µM) of 0.34. The relative viability (EMC-BAC-2; first compound 0.01 µM) was 0.545, the relative viability (EMC-BAC-2; first compound 0.03162 µM) was 0.514 and the relative viability (EMC-BAC-2; first compound 0.3162 µM) was 0.503. The relative viability (HARA; first compound 0.01 µM) was 0.292, the relative viability (HARA; first compound 0.03162 µM) was 0.575 and the relative viability (HARA; first compound 0.3162 µM) was 0.969. For the same compound, the relative viability (HOP-62; first compound 0.03162 µM) was 0.477, the relative viability (HOP-62; first compound 0.3162 µM) was 0.379 and the relative viability (LK-2; first compound 0.01 µM) was 0.717. The relative viability (LK-2; first compound 0.03162 µM) was 0.825, the relative viability (LK-2; first compound 0.3162 µM) was 0.68 and the relative viability (LU99A; first compound 0.01 µM) was 0.233. It also gave a relative viability (LU99A; first compound 0.03162 µM) of 0.237, a relative viability (LU99A; first compound 0.3162 µM) of 0.328 and a relative viability (LXF-289; first compound 0.01 µM) of 1.39. The relative viability (LXF-289; first compound 0.03162 µM) was 1.14, the relative viability (LXF-289; first compound 0.3162 µM) was 1.1 and the relative viability (NCI-H1792; first compound 0.01 µM) was 0.27. The relative viability (NCI-H1792; first compound 0.03162 µM) was 0.594, the relative viability (NCI-H1792; first compound 0.3162 µM) was 0.373 and the relative viability (NCI-H1793; first compound 0.01 µM) was 0.756. For the same compound, the relative viability (NCI-H1793; first compound 0.03162 µM) was 1.1, the relative viability (NCI-H1793; first compound 0.3162 µM) was 0.85 and the relative viability (NCI-H1944; first compound 0.01 µM) was 0.443. The relative viability (NCI-H1944; first compound 0.03162 µM) was 0.472, the relative viability (NCI-H1944; first compound 0.3162 µM) was 0.448 and the relative viability (NCI-H1993; first compound 0.01 µM) was 1.08. For the same compound, the relative viability (NCI-H1993; first compound 0.03162 µM) was 1.07, the relative viability (NCI-H1993; first compound 0.3162 µM) was 1.01 and the relative viability (NCI-H2009; first compound 0.01 µM) was 0.814. The relative viability (NCI-H2009; first compound 0.03162 µM) was 0.769, the relative viability (NCI-H2009; first compound 0.3162 µM) was 0.79 and the relative viability (NCI-H2170; first compound 0.01 µM) was 0.649. For the same compound, the relative viability (NCI-H2170; first compound 0.03162 µM) was 0.658, the relative viability (NCI-H2170; first compound 0.3162 µM) was 0.619 and the relative viability (NCI-H2228; first compound 0.01 µM) was 0.53. For the same compound, the relative viability (NCI-H2228; first compound 0.03162 µM) was 0.775, the relative viability (NCI-H2228; first compound 0.3162 µM) was 0.589 and the relative viability (NCI-H3122; first compound 0.01 µM) was 0.627. The relative viability (NCI-H3122; first compound 0.03162 µM) was 0.715, the relative viability (NCI-H3122; first compound 0.3162 µM) was 0.684 and the relative viability (NCI-H596; first compound 0.01 µM) was 0.603. For the same compound, the relative viability (NCI-H596; first compound 0.03162 µM) was 0.749, the relative viability (NCI-H596; first compound 0.3162 µM) was 0.665 and the relative viability (NCI-H727; first compound 0.01 µM) was 0.751. The relative viability (NCI-H727; first compound 0.03162 µM) was 0.678, the relative viability (NCI-H727; first compound 0.3162 µM) was 0.689 and the relative viability (PC-3 [JPC-3]; first compound 0.01 µM) was 1.35. The relative viability (PC-3 [JPC-3]; first compound 0.03162 µM) was 1.41, the relative viability (PC-3 [JPC-3]; first compound 0.3162 µM) was 1.17 and the relative viability (SK-LU-1; first compound 0.03162 µM) was 0.564. For the same compound, the relative viability (SK-LU-1; first compound 0.3162 µM) was 0.47, the relative viability (SK-MES-1; first compound 0.03162 µM) was 0.833 and the relative viability (SK-MES-1; first compound 0.3162 µM) was 0.764. For the same compound, the relative viability (SW 1573; first compound 0.01 µM) was 0.649, the relative viability (SW 1573; first compound 0.03162 µM) was 0.613 and the relative viability (SW 1573; first compound 0.3162 µM) was 0.508. For the same compound, the relative viability (SW 900; first compound 0.01 µM) was 0.804 and the relative viability (SW 900; first compound 0.3162 µM) was 0.869.
